Patent US20110039762A1, “TARGETED ANTIMICROBIAL MOIETIES” (C3 JIAN, INC., priority 2009, published 2011)
Entries after “also recorded” stand apart in the source; their conditions may differ. Ends that are not written are not given here.

How the values were obtained:
MRSA = experiment: Kill or inhibit growth/proliferation; morphology, biofilm and growth disruption (Tables 5, 6); format: cell-based, Methicillin-resistant Staphylococcus aureus; set-up: key: A: Peptide aggregates; B: Less hyphal formation; Clumps; Diffuse clumps and small polyps; F: Diffuse growth; H: Thin; I: Growth inhibition; Microcolony formation; Rippled; Small polyps; Thick; W: Halo formation on top, microlonies on bottom; also: test concentration or dose not given here
microorganisms = experiment: Peptides having multiple activities (targeting/binding, antimicrobial, growth or phenotype altering)
Source text: In certain embodiments, peptides described herein can have multiple activities. Thus for example, a peptide can have both binding/targeting activity and antimicrobial activity. Such peptides can be used, e.g., in a chimeric construct, for any or all of these properties. Thus, for example, a peptide designated “B” in Table 8 can be used as a targeting peptide. If it is also designated G or M it can also be used for antimicrobial activity.

[1] = system: microorganisms (e.g., bacteria, yeasts, fungi); experiment: Targeting peptide binding to target microorganisms (Table 3); settings: preferably 1x PBS; for Target(s): microorganism(s) the targeting peptide binds; for Target(s) (microorganisms bound by the targeting peptide): peptide binding in aqueous buffers varied by peptide solubility
S. pneumoniae = experiment: Kill or inhibit growth/proliferation; morphology, biofilm and growth disruption (Tables 5, 6); format: cell-based, Streptococcus pneumoniae; set-up: key: A: Peptide aggregates; B: Less hyphal formation; Clumps; Diffuse clumps and small polyps; F: Diffuse growth; H: Thin; I: Growth inhibition; Microcolony formation; Rippled; Small polyps; Thick; W: Halo formation on top, microlonies on bottom; also: test concentration or dose not given here
[2] = peptide binding conducted in aqueous buffers varied by peptide solubility

Substance	Organism, effect (MRSA)	Activities (microorganisms)	Target(s) [1, 2]	Organism, effect (S. pneumoniae)	Target(s) (microorganisms bound by the targeting peptide) [1]	Organism, effect (morphology, biofilm and growth disruption) (S. pneumoniae)	Organism, effect (morphology, biofilm and growth disruption) (MRSA)	Target(s) ([1]; binding in aqueous buffers depending on peptide solubility)
PF-019 (NDTNK; Peptide with targeting and/or antimicrobial activity)	MRSA (M)							
PF-515: peptide having multiple activities (chain 1 DKSTQDKDIKQAKLLAQELGL-NH2; chain 2 DKSTQDKDIKQAKLLAQELGL-NH2)		G B	S. epidermidis; also recorded: C. albicans; also recorded: S. pneumoniae; also recorded: C. jeikeium	S. pneumoniae (H)				
PF-467: peptide having multiple activities (chain 1 YYKDYFKEI; chain 2 YYKDYFKEI; Peptide with targeting and/or antimicrobial activity)		G B	MRSA and E. faecalis and C. jeikeium and C. jejuni	S. pneumoniae (H)				
PF-517: peptide having multiple activities (chain 1 VKPTMTASLISTVC; chain 2 VKPTMTASLISTVC; Peptide with targeting and/or antimicrobial activity)		G B	C. jejuni	S. pneumoniae (M)				
PF-756: peptide having multiple activities (DALLRLA; Peptide with targeting and/or antimicrobial activity)		G B			S. epidermidis and M. luteus and C. albicans and MRSA and C. jeikeium	S. pneumoniae (A)		
PF-421: peptide having multiple activities (KHCFEITDKTDVV; Peptide with targeting and/or antimicrobial activity)		G B	C. jeikeium	S. pneumoniae (H)				
PF-466: peptide having multiple activities (chain 1 VRKSDQ; chain 2 VRKSDQ; Peptide with targeting and/or antimicrobial activity)		G B	MRSA and C. jeikeium and C. jejuni	S. pneumoniae (H)				
PF-446: peptide having multiple activities (chain 1 SGNEKV; chain 2 SGNEKV; Peptide with targeting and/or antimicrobial activity)		G B	M. luteus; also recorded: C. jeikeium	S. pneumoniae (H)				
PF-656 (chain 1 RGMFVPFHDVDCVQ; chain 2 RGMFVPFHDVDCVQ; Peptide with targeting and/or antimicrobial activity)					Mycobacteria spp		MRSA (R)	
PF-433: peptide having multiple activities (MRKEFHNVLSSGQLLADKRPARDYNRK; Peptide with targeting and/or antimicrobial activity)		G B	S. epidermidis; also recorded: E. coli; also recorded: S. pneumoniae; also recorded: C. jeikeium	S. pneumoniae (H)				
PF-144: peptide having multiple activities (RSGQPVGRPSRRAWLR; Peptide with targeting and/or antimicrobial activity)		G B		S. pneumoniae (H)				S. epidermidis and M. luteus and E. coli and C. albicans and MRSA and S. pneumoniae and E. faecalis and C. jeikeium
PF-692 (chain 1 GVAREDPLEPDPLAPIIDDSR; chain 2 GVAREDPLEPDPLAPIIDDSR; Peptide with targeting and/or antimicrobial activity)					Mycobacteria spp		MRSA (R)	
PF-737: peptide having multiple activities (KSSGSSASASSTAGGSSSK; Peptide with targeting and/or antimicrobial activity)		G B			S. epidermidis; also recorded: S. pneumoniae	S. pneumoniae (D)		
PF-476: peptide having multiple activities (chain 1 WADAQYKLCENCSE; chain 2 WADAQYKLCENCSE; Peptide with targeting and/or antimicrobial activity)		G B	M. luteus; also recorded: P. mirabilis; also recorded: C. albicans; also recorded: S. pneumoniae; also recorded: E. faecalis; also recorded: C. jeikeium; also recorded: C. jejuni	S. pneumoniae (H)				
PF-513: peptide having multiple activities (chain 1 SNGVGLGVGIGSGIRF-NH2; chain 2 SNGVGLGVGIGSGIRF-NH2)		G B	C. albicans	S. pneumoniae (M)				
PF-424: peptide having multiple activities (IAAFVTSRAFSDTVSPI; Peptide with targeting and/or antimicrobial activity)		G B	S. epidermidis and C. albicans and MRSA	S. pneumoniae (H)				
PF-428: peptide having multiple activities (ENEESIF; Peptide with targeting and/or antimicrobial activity)		G B	S. epidermidis; also recorded: C. albicans; also recorded: E. faecalis; also recorded: C. jeikeium	S. pneumoniae (H)				
PF-542: peptide having multiple activities (chain 1 KKDNPSLNDQDKNAVLNLLALAK; chain 2 KKDNPSLNDQDKNAVLNLLALAK; Peptide with targeting and/or antimicrobial activity)		G B	C. jeikeium	S. pneumoniae (H)				
PF-434: peptide having multiple activities (GQLLADKRPARDYNRK; Peptide with targeting and/or antimicrobial activity)		G B	S. epidermidis; also recorded: M. luteus; also recorded: S. pneumoniae; also recorded: C. jeikeium	S. pneumoniae (S)				
PF-626: peptide having multiple activities (KYDFDDFEPEEA; Peptide with targeting and/or antimicrobial activity)		G B		S. pneumoniae (H)	S. epidermidis and M. luteus and E. coli and C. albicans and MRSA and S. pneumoniae and E. faecalis and C. jeikeium			
